Where two headings read alike, the source gives them in different places.
Key:
HDAC7 = molecular target: T1, HDAC7 (Homo sapiens, UniProt Q8WUI4); assay: HDAC biochemical activity measurement (fluorescent substrate deacetylation);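 further: fluorogenic deacetylation assay using acetyl-lysine substrate at 20 µM, enzyme and compound incubated 30 min at 37 °C, then developer added, fluorescence read at 360/460 nm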; settings: HDAC7; 37° C. 30 minutes
T1 sequence (Q8WUI4 1-952): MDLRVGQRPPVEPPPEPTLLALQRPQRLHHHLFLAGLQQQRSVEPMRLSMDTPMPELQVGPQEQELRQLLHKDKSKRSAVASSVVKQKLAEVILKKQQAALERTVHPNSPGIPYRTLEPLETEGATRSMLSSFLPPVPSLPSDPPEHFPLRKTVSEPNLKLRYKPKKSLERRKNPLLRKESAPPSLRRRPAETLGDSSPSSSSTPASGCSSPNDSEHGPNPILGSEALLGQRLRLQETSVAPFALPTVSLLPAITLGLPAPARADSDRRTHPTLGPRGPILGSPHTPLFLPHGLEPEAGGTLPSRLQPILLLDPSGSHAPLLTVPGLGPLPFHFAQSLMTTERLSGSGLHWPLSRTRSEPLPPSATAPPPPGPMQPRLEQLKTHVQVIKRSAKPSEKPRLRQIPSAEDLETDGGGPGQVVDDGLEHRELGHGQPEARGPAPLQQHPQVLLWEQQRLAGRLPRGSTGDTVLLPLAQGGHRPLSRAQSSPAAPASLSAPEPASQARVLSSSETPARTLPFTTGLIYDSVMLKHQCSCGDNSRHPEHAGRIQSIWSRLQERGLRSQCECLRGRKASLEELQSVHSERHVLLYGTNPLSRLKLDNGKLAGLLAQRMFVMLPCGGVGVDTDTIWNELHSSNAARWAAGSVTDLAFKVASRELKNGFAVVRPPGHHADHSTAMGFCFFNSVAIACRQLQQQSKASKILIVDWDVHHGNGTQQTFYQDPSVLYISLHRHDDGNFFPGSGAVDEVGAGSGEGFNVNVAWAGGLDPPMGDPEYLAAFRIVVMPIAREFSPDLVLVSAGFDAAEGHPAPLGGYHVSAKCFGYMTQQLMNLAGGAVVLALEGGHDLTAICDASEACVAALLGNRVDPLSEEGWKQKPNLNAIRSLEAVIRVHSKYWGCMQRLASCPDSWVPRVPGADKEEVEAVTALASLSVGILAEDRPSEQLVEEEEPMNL

[1] = system: KBM-5 (human chronic myelogenous leukemia); assay: MTT cancer cell growth inhibition; format: cell-based; settings: MTT, 72 hours incubation, KBM-5 cells, read-out: GI50 KBM-5
Outline: (§1)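 MTT viability, 570 nm, GI50. Cells 1500/well; compound 72 h at final 10^−5–10^−10 M in triplicate.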

[2] = system: A549 (human lung cancer cells); assay: MTT cancer cell growth inhibition; format: cell-based; settings: MTT, 72 hours incubation, read-out: GI50 A54
Outline: as §1

[3] = system: lncap (prostate cancer cells); assay: MTT cancer cell growth inhibition; format: cell-based; settings: MTT, 72 hours incubation, read-out: GI50 lnca
Outline: as §1

[4] = system: DU145 (human prostate cancer cells); assay: MTT cancer cell growth inhibition; format: cell-based; settings: MTT, 72 hours incubation, read-out: GI50 Du1
Outline: as §1

[5] = system: K562 (human leukemia cells); assay: MTT cancer cell growth inhibition; format: cell-based; settings: MTT, 72 hours incubation, K562 cells, read-out: GI50 K562
Outline: as §1

[6] = system: BGC-823 (human gastric cancer cells); assay: MTT cancer cell growth inhibition; format: cell-based; settings: MTT, 72 hours incubation, read-out: GI50 BG
Outline: as §1

[7] = system: HCC827 (human non-small cell lung cancer cells); assay: MTT cancer cell growth inhibition; format: cell-based; settings: MTT, 72 hours incubation, HCC827 cells, read-out: GI50 HCC827
Outline: as §1

[8] = system: SGC-7901 (human gastric cancer cells); assay: MTT cancer cell growth inhibition; format: cell-based; settings: MTT, 72 hours incubation, SGC-7901 cells, read-out: GI50 SGC-7901
Outline: as §1

[9] = system: MDA-MB-231 (breast cancer cells); assay: MTT cancer cell growth inhibition; format: cell-based
Outline: as §1

[10] = system: PANC-1 (Pac-1, human pancreatic cancer cells); assay: MTT cancer cell growth inhibition; format: cell-based; settings: MTT, 72 hours incubation, read-out: GI50 PAN
Outline: as §1

[11] = system: HT1080 (human fibrosarcoma cells); assay: MTT cancer cell growth inhibition; format: cell-based; settings: MTT, 72 hours incubation, read-out: GI50 HT1
Outline: as §1

[12] = system: U937 (human leukemia cells); assay: MTT cancer cell growth inhibition; format: cell-based; settings: MTT, 72 hours incubation, read-out: GI50 U93
Outline: as §1

[13] = system: Huh-7 (human hepatoma cells); assay: MTT cancer cell growth inhibition; format: cell-based; settings: MTT, 72 hours incubation, Huh-7 cells, read-out: GI50 Huh-7
Outline: as §1

[14] = system: H1975 (non-small cell lung adenocarcinoma); assay: MTT cancer cell growth inhibition; format: cell-based; settings: MTT, 72 hours incubation, H1975 cells, read-out: GI50 H1975
Outline: as §1

[15] = system: MCF-7 (human breast cancer cells); assay: MTT cancer cell growth inhibition; format: cell-based; settings: 72 hours incubation, read-out: GI50 MCF
Outline: as §1

[16] = system: N-87 (human gastric cancer cells); assay: MTT cancer cell growth inhibition; format: cell-based; settings: MTT, 72 hours incubation, N-87 cells, read-out: GI50 N-87
Outline: as §1

[17] = system: MOLT-4 (human acute lymphoblastic leukemia cells); assay: MTT cancer cell growth inhibition; format: cell-based; settings: MTT, 72 hours incubation, read-out: GI50 Mol
Outline: as §1

[18] = system: Bel-7402 (human hepatoma cells); assay: MTT cancer cell growth inhibition; format: cell-based; settings: MTT, 72 hours incubation, Bel-7402 cells, read-out: GI50 Bel-7402
Outline: as §1

[19] = system: Hela (human cervical cancer cells); assay: MTT cancer cell growth inhibition; format: cell-based; settings: MTT, 72 hours incubation, read-out: GI50 Hela
Outline: as §1

[20] = system: KBM5-T315I (human chronic myelogenous leukemia); assay: MTT cancer cell growth inhibition; format: cell-based; settings: MTT, 72 hours incubation, KBM5-T315I cells, read-out: GI50 KBM5-T315I
Outline: as §1

[21] = read-out: GI50 MDA-MB-231, MTT, 72 hours incubation, MDA-MB-231 cells
[22] = Homo sapiens, MDA-MB-231, 72 h, read-out: GI50 MDA-MB-231, MTT, 72 hours incubation, MDA-MB-231 cells
[23] = Homo sapiens, A549, 72 h, A549 cells
[24] = Homo sapiens, LNCaP, 72 h, lncap cells
[25] = Homo sapiens, DU-145, 72 h, DU145 cells
[26] = Homo sapiens, BGC-823, 72 h, BGC-823 cells
[27] = Homo sapiens, PANC-1, 72 h, PANC-1 cells
[28] = Homo sapiens, HT-1080, 72 h, HT1080 cells
[29] = Homo sapiens, U-937, 72 h, U937 cells
[30] = Homo sapiens, MCF7, 72 h, MCF-7 cells
[31] = Homo sapiens, MOLT-4, 72 h, MOLT-4 cells
[32] = Homo sapiens, HeLa, 72 h, Hela cells

IC50 HDAC7 (HDAC7) | GI50 [1] [nM] | GI50 [7] [nM] | GI50 [8] [nM] | GI50 [9, 21] [nM] | GI50 ([1]; Homo sapiens, KBM5, 72 h) [nM] | GI50 ([5]; Homo sapiens, K562, 72 h) [nM] | GI50 ([7]; Homo sapiens, HCC827, 72 h) [nM] | GI50 ([8]; Homo sapiens, SGC-7901, 72 h) [nM] | GI50 [9, 22] [nM] | GI50 ([13]; Homo sapiens, Huh-7, 72 h) [nM] | GI50 ([14]; Homo sapiens, NCI-H1975, 72 h) [nM] | GI50 ([16]; Homo sapiens, 72 h) [nM] | GI50 ([18]; Homo sapiens, Bel-7402, 72 h) [nM] | GI50 ([20]; Homo sapiens, 72 h) [nM] | GI50 [2, 23] [nM] | GI50 [4, 25] [nM] | GI50 [6, 26] [nM] | GI50 [12, 29] [nM] | GI50 [15, 30] [nM] | Compound | also measured
no activity | 36 | 36 | 35 | 35 | – | – | – | – | – | – | – | – | – | – | – | – | – | – | – | C=C1NC(=O)c2cc(F)cc(n2)CNC(=O)C[C@@H](/C=C/CCS)OC(=O)[C@H](C(C)C)NC1=O [Compound 133] | GI50 [2]: 50 nM; GI50 [3]: 80 nM; GI50 [4]: 70 nM; GI50 [5]: 16 nM; GI50 [6]: 50 nM; GI50 [10]: 50 nM; GI50 [11]: 80 nM; GI50 [12]: 50 nM; GI50 [13]: 33 nM; GI50 [14]: 31 nM; GI50 [15]: 70 nM; GI50 [16]: 66 nM; GI50 [17]: 80 nM; GI50 [18]: 32 nM; GI50 [19]: 20 nM; GI50 [20]: 16 nM
no activity | – | – | – | – | 72 | 26 | 83 | 41 | 22 | 22 | 35 | 50 | 83 | 67 | – | – | – | – | – | C/C=C1\NC(=O)c2nc(ccc2F)CNC(=O)C[C@@H](/C=C/CCSC(=O)CCCC)OC(=O)[C@H](C(C)C)NC1=O [Example 39] | GI50 ([2]; Homo sapiens, A549, 72 h): 40 nM; GI50 ([3]; Homo sapiens, LNCaP, 72 h): 20 nM; GI50 ([4]; Homo sapiens, DU-145, 72 h): 20 nM; GI50 ([6]; Homo sapiens, BGC-823, 72 h): 50 nM; GI50 ([10]; Homo sapiens, PANC-1, 72 h): 80 nM; GI50 ([11]; Homo sapiens, HT-1080, 72 h): 80 nM; GI50 ([12]; Homo sapiens, U-937, 72 h): 30 nM; GI50 ([15]; Homo sapiens, MCF7, 72 h): 60 nM; GI50 ([17]; Homo sapiens, MOLT-4, 72 h): 20 nM; GI50 ([19]; Homo sapiens, HeLa, 72 h): 70 nM
no activity | – | – | – | – | 80 | 29 | 33 | 39 | 49 | 35 | 83 | 37 | 84 | 13 | 20 | 60 | 40 | 60 | 50 | C/C=C1\NC(=O)c2nc(ccc2SC)CNC(=O)C[C@@H](/C=C/CCSC(C)=O)OC(=O)[C@H](CC)NC1=O [Compound 177] | GI50 [3, 24]: 10 nM; GI50 [10, 27]: 20 nM; GI50 [11, 28]: 30 nM; GI50 [17, 31]: 60 nM; GI50 [19, 32]: 100 nM
no activity | 14 | 28 | 97 | 91 | – | 45 | – | – | – | 29 | – | 42 | – | 33 | 30 | 40 | 40 | 20 | 30 | C/C=C1\NC(=O)c2ccc(SC)c(n2)CNC(=O)C[C@@H](/C=C/CCSC(C)=O)OC(=O)[C@H](C(C)C)NC1=O [Compound 167] | GI50 ([3]; lncap cells): 60 nM; GI50 ([10]; PANC-1 cells): 70 nM; GI50 ([11]; HT1080 cells): 100 nM; GI50 [14]: 43 nM; GI50 ([17]; MOLT-4 cells): 20 nM; GI50 [18]: 75 nM; GI50 ([19]; Hela cells): 40 nM
no activity | – | – | – | – | 71 | 86 | 77 | 91 | 23 | 28 | 38 | 77 | 37 | 53 | 60 | 50 | 740 | 20 | 70 | C/C=C1\NC(=O)c2nc(ccc2SC)CNC(=O)C[C@@H](/C=C/CCS)OC(=O)[C@H](CC)NC1=O [Compound 229] | GI50 [3, 24]: 30 nM; GI50 [10, 27]: 50 nM; GI50 [11, 28]: 10 nM; GI50 [17, 31]: 30 nM; GI50 [19, 32]: 30 nM

Source: patent US10065990B2, “Cyclic peptide compound, and preparation method, pharmaceutical composition and use thereof” (HANGZHOU GUANYU BIO-MEDICAL CO., LTD, priority 2013, dated 2018)
